Laboratory results as given in patent US20260183209A1, “USE OF SANDALORE FOR IMPROVING THE STRUCTURE OF HAIR” (WELLA GERMANY GMBH, priority 2022, published 2026).

What was measured:
keratin 85 (KRT85) = test: Keratin 85 expression, fluorescence intensity in the precortical hair matrix of ex vivo human scalp skin sections; format: cell-based
Description: (§1) The “cross-section” or “diameter” of hair is determined by the microscopic sectioned, newly formed hair shaft diameter in the keratogenous region (in a distance of around 200-350 μm from the ‘germative matrix’). In an ex vivo human scalp skin culture and treatment, 6 mm skin punches (hairy skin from a healthy donor) were made following the hair growth orientation and maintained in normoxic (37° C., 5% CO2) condition. After 24 h resting (and then keeping) the culture in an Air-Liquid Interphase, two topical treatment were performed (day 1 and 3). Punches were embedded in an optimal cutting temperature compound after 5 days of ex vivo culture and cryosectioned (7 μm sections). The average value is calculated from 5 independent measurements for each hair follicle (HF).
Expression of keratin 85 (KRT85) is set by fluorescence intensity in the precortical hair matrix with a fluorescence microscope at 20× magnification. Skin sections were co-stained o.n. at 4° C. with a guinea pig anti-KRT85 antibody (Progen, 1:200) followed by DAPI (IUPAC: 4′,6-Diamidino-2-phenylindol) counterstain to visualize the nuclei. The mean KRT85 expression value was calculated from all hair follicles with Image J software within each donor, and fold changes values versus vehicle group were determined.

[1] = test system: hair follicles of ex vivo human scalp skin culture; test: Cross-section / hair shaft diameter in ex vivo human scalp skin culture; format: cell-based
Description: as §1
In an ex vivo human scalp skin culture, punches (hairy skin from a human donors) were twice (day 1 and 3) treated topically, and analysed via crysectioning after 5 days. The average value for each hair follicle (HF) is calculated from 5 independent measurements, and the following table indicates the mean of all average values over the total number of hair follices (#HFs) measured.

[2] = molecular target: T1, olfactory receptor OR2AT4 (Homo sapiens, UniProt A6NND4); conditions: receptor expressed in the epithelium of human hair follicles; cited from earlier work
T1 sequence (A6NND4 1-320): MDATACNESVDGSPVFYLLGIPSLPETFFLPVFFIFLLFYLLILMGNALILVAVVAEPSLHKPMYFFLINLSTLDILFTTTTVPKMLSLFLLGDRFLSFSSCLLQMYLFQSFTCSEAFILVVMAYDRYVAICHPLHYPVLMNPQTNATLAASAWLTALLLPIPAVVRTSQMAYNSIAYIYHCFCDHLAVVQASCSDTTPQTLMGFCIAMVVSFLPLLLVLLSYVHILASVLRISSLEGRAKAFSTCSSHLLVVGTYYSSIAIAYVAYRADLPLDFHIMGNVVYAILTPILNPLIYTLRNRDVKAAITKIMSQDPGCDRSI

CC1=CCC(CCC(C)C(C)O)C1(C)C (centres unmarked) [Sandalore, 3-methyl-5-(2,2,3-trimethylcyclopent-3-en-1-yl) pentan-2-ol]
KRT85 expression, change vs vehicle group (keratin 85 (KRT85); fluorescence intensity, anti-KRT85 antibody staining, precortical hair matrix, mean over hair follicles): 1.347 fold
KRT85 expression, comparison in words (keratin 85 (KRT85); fold change values, vs vehicle group or vs Sandalore alone): significantly higher
effect on hair shaft diameter as compared to vehicle ([1]; ex vivo human scalp skin culture, vs vehicle): increases the hair shaft diameter significantly
hair shaft diameter ([1]; ex vivo human scalp skin punches, topical treatment day 1 and 3, cryosectioned after 5 days, mean over all hair follicles): 51.1 μm
effect on olfactory receptor OR2AT4 [2]: stimulatory effect
